Bridge positions count the residues as written; N and C are the ends. Square brackets hold non-standard residues; d marks the D form. Peptide text beside a SMILES is read from it. R8 = C=CCCCCCC[C@@](C)(N)C(=O)O; S5 = C=CCCC[C@](C)(N)C(=O)O; Nle = CCCC[C@H](N)C(=O)O; Abu = CC[C@H](N)C(=O)O
Tests used:
[1] = target: T1, flag-tagged HIF1α (AA 786-826) / His6-tagged p300 (AA 323-423) complex (Homo sapiens, UniProt Q09472); assay: HIF1α p300 displacement assay (TR FRET, +CHAPS); type: binding; details: read-out: IC50 (nM) (HIF1α_p300 Displacement + CHAPS)
T1 construct: His6-tagged p300 (AA 323-423); made in house; host or cells: E. coli (pETDuet vector)
Method in brief: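 In this TR-FRET displacement format, peptides compete HIF1α C-terminal transactivation domain off p300-CH. They were preincubated 1 h at room temperature with 300 nM complex in HEPES pH 7.4/NaCl buffer with 7.5 mM CHAPS and 1 mM DTT. Anti-His-D2 (4 nM) and anti-Flag-K (0.5 μM) followed for 2 h, and a one-site fit of the fluorescence ratio gave IC50.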

HRE-bla ME-180 cells [2] = assay: Cell proliferation assay (viability, MTT, 1% FBS); type: cell-based, human
Method in brief: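 Viable cell number was measured with the CellTiter 96 (MTT) kit after compounds were applied for a 16 h normoxic (21% O2) pretreatment, followed by further normoxic or hypoxic (1% O2) culture. Cells: 2×10^4 ME-180 per well, Opti-MEM + 1% FBS, 0.5% DMSO vehicle.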

HRE-bla ME-180 cells [3] = assay: Reporter gene assay (HRE-bla ME-180 HIF reporter, GeneBLAzer); type: cell-based, human; details: for EC50: 24 hour normoxia
Method in brief: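 A FRET β-lactamase readout of HIF transcription was used. After compound treatment in 0.3% DMSO/media under normoxic conditions, 20 μl of 6× LiveBLAzer-FRET B/G (CCF4-AM) substrate was added. Plates sat 3 hr at room temperature in the dark and were read at 409 Ex/460Em and 409Ex/530Em on a Synergy 2. Inhibition was compared against DMSO vehicle controls, with chetomin as positive control.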

SMILES	IC50 [1]	EC50 (HRE-bla ME-180 cells [3])	Viability 1% FBS AVG (MTT V3-24 hr Normoxia) (μM) (HRE-bla ME-180 cells [2])	18 h Avg % max inhibition at top conc (HIF Rptr-24 hrs normoxia) (μM) (HRE-bla ME-180 cells [3])
CCCC[C@H](NC(=O)[C@H](Cc1ccccc1)NC(=O)[C@@H](NC(=O)[C@H](CCC(=O)O)NC(=O)[C@H](CCC(=O)O)NC(=O)[C@H](CC(=O)O)NC(=O)[C@@H](NC(=O)[C@H](Cc1ccccc1)NC(C)=O)[C@@H](C)CC)C(C)C)C(=O)N[C@@]1(C)CCCC=CCCC[C@@](C)(C(=O)N[C@@H](C)C(=O)N[C@@H](C)C(=O)N[C@@H](CC(C)C)C(=O)N[C@@H](CC(C)C)C(N)=O)NC(=O)[C@H]([C@@H](C)CC)NC(=O)[C@H](C(C)C)NC(=O)[C@H](CC(C)C)NC1=O [SP-247] (Ac-FIDEEVF[Nle][S5]LVI[S5]AALL-NH2; staple 9-13)	400 to 700 nM	15 to 30 µM	++++ (≥30: ++++)	+++ (≤25 but <50: +++)
CCCC[C@H](NC(=O)[C@]1(C)CCCC=CCCC[C@](C)(NC(=O)[C@H](CCSC)NC(=O)[C@H](CC(C)C)NC(=O)[C@@H](NC(=O)[C@H](CCC(=O)O)NC(=O)[C@H](CCC(=O)O)NC(=O)[C@H](CC(=O)O)NC(=O)[C@@H](NC(=O)[C@H](Cc2ccccc2)NC(C)=O)[C@@H](C)CC)C(C)C)C(=O)N[C@@H](CC(C)C)C(=O)N[C@@H](C(C)C)C(=O)N[C@@H]([C@@H](C)CC)C(=O)N1)C(=O)N[C@@H](C)C(=O)N[C@@H](CC(C)C)C(N)=O [SP-225] (Ac-FIDEEVLM[S5]LVI[S5][Nle]AL-NH2; staple 9-13)	> 700 nM	> 30 µM	++++ (≥30: ++++)	+++ (≤25 but <50: +++)
CC[C@H](C)[C@H](NC(=O)[C@H](CCCNC(=N)N)NC(=O)[C@H](CC(=O)O)NC(=O)[C@H](CC(C)C)NC(=O)[C@H](C)NC(=O)[C@H](CCSC)NC(=O)[C@]1(C)CCCC=CCCC[C@](C)(NC(=O)[C@H](CCSC)NC(=O)[C@H](CC(C)C)NC(=O)[C@@H](NC(=O)[C@H](C)NC(=O)[C@H](CCC(N)=O)NC(=O)[C@H](CC(N)=O)NC(=O)[C@@H](NC(=O)[C@H](Cc2ccccc2)NC(C)=O)[C@@H](C)CC)C(C)C)C(=O)N[C@@H](CC(C)C)C(=O)N[C@@H](C(C)C)C(=O)N[C@@H]([C@@H](C)CC)C(=O)N1)C(N)=O [SP-271] (Ac-FINQAVLM[S5]LVI[S5]MALDRI-NH2; staple 9-13)	> 700 nM	> 30 µM	++++ (≥30: ++++)	+++ (≤25 but <50: +++)
CCCC[C@H](NC(=O)[C@H](CC(C)C)NC(=O)[C@@H](NC(=O)[C@H](CCC(=O)O)NC(=O)[C@H](CCC(=O)O)NC(=O)[C@H](C)NC(=O)[C@@H](NC(=O)[C@H](Cc1ccccc1)NC(C)=O)[C@@H](C)CC)C(C)C)C(=O)N[C@@]1(C)CCCC=CCCC[C@@](C)(C(=O)N[C@@H](CCCC)C(=O)N[C@@H](C)C(=O)N[C@@H](CC(C)C)C(=O)N[C@@H](CC(=O)O)C(=O)N[C@@H](C)C(=O)N[C@H](C(N)=O)[C@@H](C)CC)NC(=O)[C@H]([C@@H](C)CC)NC(=O)[C@H](C(C)C)NC(=O)[C@H](CC(C)C)NC1=O [SP-221] (Ac-FIAEEVL[Nle][S5]LVI[S5][Nle]ALDAI-NH2; staple 9-13)	200 to 400 nM	15 to 30 µM	++++ (≥30: ++++)	++++ (≥50: ++++)
CCCC[C@H](NC(=O)[C@H](Cc1ccccc1)NC(=O)[C@@H](NC(=O)[C@H](CCC(=O)O)NC(=O)[C@H](CCC(=O)O)NC(=O)[C@H](CC(=O)O)NC(=O)[C@@H](NC(C)=O)[C@@H](C)CC)C(C)C)C(=O)N[C@@]1(C)CCCC=CCCC[C@@](C)(C(=O)N[C@@H](CCCC)C(=O)N[C@@H](C)C(=O)N[C@@H](CC(C)C)C(=O)N[C@@H](CC(C)C)C(N)=O)NC(=O)[C@H]([C@@H](C)CC)NC(=O)[C@H](C(C)C)NC(=O)[C@H](CC(C)C)NC1=O [SP-243] (Ac-IDEEVF[Nle][S5]LVI[S5][Nle]ALL-NH2; staple 8-12)	400 to 700 nM	15 to 30 µM	++++ (≥30: ++++)	++++ (≥50: ++++)
CC[C@@H]1NC(=O)[C@H](CC(=O)O)NC(=O)[C@H](Cc2ccc(O)cc2)NC(=O)[C@@](C)(NC(=O)[C@@H](NC(=O)[C@H](CC(C)C)NC(=O)[C@H](CCC(N)=O)NC(=O)[C@@H]2CCCN2C(=O)[C@H](CC(C)C)NC(=O)[C@H](CCC(=O)O)NC(=O)[C@H](CCCCN)NC(=O)[C@@H](NC(=O)[C@H](CCCNC(=N)N)NC(=O)[C@H](CC(=O)O)NC(=O)[C@H](CC(C)C)NC(=O)CNC(=O)[C@H](CCSC)NC(=O)[C@H](CCC(=O)O)NC(=O)[C@]2(C)CCCC=CCCCCCC[C@@](C)(NC(=O)[C@H](CCC(=O)O)NC(=O)[C@H](CC(=O)O)NC(=O)[C@@H](NC(=O)[C@H](Cc3ccccc3)NC(C)=O)[C@@H](C)CC)C(=O)N[C@@H](C(C)C)C(=O)N[C@@H](CC(C)C)C(=O)N[C@@H](CCSC)C(=O)N[C@@H](CO)C(=O)N[C@@H](CC(C)C)C(=O)N[C@@H](C(C)C)C(=O)N2)[C@@H](C)CC)[C@@H](C)O)CCCC=CCCC[C@@](C)(C(=O)N[C@H](C(=O)N[C@@H](CC(N)=O)C(=O)N[C@@H](C)C(N)=O)C(C)C)NC1=O [SP-323] (Ac-FIDE[R8]VLMSLV[S5]EMGLDRIKELPQLT[S5]YD[Abu][S5]VNA-NH2; staple 5-12, 27-31)	200 to 400 nM	> 30 µM	++++ (≥30: ++++)	+ (<10: +)

Continued, in another order:

IC50 [1]	EC50 (HRE-bla ME-180 cells [3])	SMILES	Viability 1% FBS AVG (MTT V3-24 hr Normoxia) (μM) (HRE-bla ME-180 cells [2])	18 h Avg % max inhibition at top conc (HIF Rptr-24 hrs normoxia) (μM) (HRE-bla ME-180 cells [3])
≤ 200 nM	> 30 µM	CC[C@H](C)[C@H](NC(=O)[C@H](CCCNC(=N)N)NC(=O)[C@H](CC(=O)O)NC(=O)[C@H](CC(C)C)NC(=O)[C@H](C)NC(=O)[C@H](CCSC)NC(=O)[C@H](CCC(=O)O)NC(=O)[C@@H](NC(=O)[C@@H](NC(=O)[C@H](CC(C)C)NC(=O)[C@]1(C)CCCC=CCCC[C@](C)(NC(=O)[C@H](CCC(=O)O)NC(=O)[C@H](CC(=O)O)NC(=O)[C@@H](NC(=O)[C@H](Cc2ccccc2)NC(C)=O)[C@@H](C)CC)C(=O)N[C@@H](C(C)C)C(=O)N[C@@H](CC(C)C)C(=O)N[C@@H](CCSC)C(=O)N1)C(C)C)[C@@H](C)CC)C(N)=O [SP-108] (Ac-FIDE[S5]VLM[S5]LVIEMALDRI-NH2; staple 5-9)	++++ (≥30: ++++)	++ (≤10 but <25: ++)
≤ 200 nM	> 30 µM	CCCC[C@@H]1NC(=O)[C@H](CC(C)C)NC(=O)[C@H]([C@@H](C)O)NC(=O)[C@@](C)(NC(=O)[C@H](CCC(=O)O)NC(=O)[C@H](CC(=O)O)NC(=O)[C@@H](NC(=O)[C@H](Cc2ccccc2)NC(C)=O)[C@@H](C)CC)CCCC=CCCCC2(CCCC=CCCC[C@](C)(C(=O)N[C@@H](CCCC)C(=O)N[C@@H](C)C(=O)N[C@@H](CC(C)C)C(N)=O)NC(=O)[C@H]([C@@H](C)CC)NC(=O)[C@H](C(C)C)NC(=O)[C@H](CC(C)C)NC2=O)NC1=O (stereo partly shown) [SP-207]	++++ (≥30: ++++)	+ (<10: +)
200 to 400 nM	> 30 µM	CCCC[C@H](NC(=O)[C@H](CCC(=O)O)NC(=O)[C@@H](NC(=O)[C@@H](NC(=O)[C@H](CC(C)C)NC(=O)[C@]1(C)CCCC=CCCC[C@](C)(NC(=O)[C@H](CCC(=O)O)NC(=O)[C@H](CC(=O)O)NC(=O)[C@@H](NC(=O)[C@H](Cc2ccccc2)NC(C)=O)[C@@H](C)CC)C(=O)N[C@@H](C(C)C)C(=O)N[C@@H](CC(C)C)C(=O)N[C@@H](CCCC)C(=O)N1)C(C)C)[C@@H](C)CC)C(=O)N[C@@H](C)C(=O)N[C@@H](CC(C)C)C(=O)N[C@@H](CC(=O)O)C(=O)N[C@@H](CCCNC(=N)N)C(=O)N[C@H](C(N)=O)[C@@H](C)CC [SP-109] (Ac-FIDE[S5]VL[Nle][S5]LVIE[Nle]ALDRI-NH2; staple 5-9)	++ (≤5 but <15: ++)	+ (<10: +)
> 700 nM	> 30 µM	CCCC[C@H](NC(=O)[C@H](CCC(=O)O)NC(=O)[C@]1(C)CCCC=CCCCCCC[C@@](C)(NC(=O)[C@H](CCC(=O)O)NC(=O)[C@H](C)NC(=O)[C@@H](NC(=O)[C@H](CC(N)=O)NC(=O)[C@@H](NC(=O)[C@H](CCC(N)=O)NC(=O)[C@]2(C)CCCC=CCCC[C@](C)(NC(=O)[C@H](CC(C)C)NC(=O)[C@H](CCC(=O)O)NC(=O)[C@H](CCC(=O)O)NC(=O)CNC(=O)[C@H](CCC(N)=O)NC(=O)[C@H](CC(C)C)NC(=O)[C@H](CC(C)C)NC(C)=O)C(=O)N[C@@H](CCCNC(=N)N)C(=O)N[C@@H](C)C(=O)N[C@@H](CC(C)C)C(=O)N2)C(C)C)[C@@H](C)CC)C(=O)N[C@@H](C(C)C)C(=O)N[C@@H](CC(C)C)C(=O)N[C@@H](CCCC)C(=O)N[C@@H](CO)C(=O)N[C@@H](CC(C)C)C(=O)N[C@@H](C(C)C)C(=O)N1)C(N)=O [SP-365] (Ac-LLQGEEL[S5]RAL[S5]QVNIAE[R8]VL[Nle]SLV[S5]E[Nle]-NH2; staple 8-12, 19-26)	++++ (≥30: ++++)	+++ (≤25 but <50: +++)

From US20190225650A1, “PEPTIDOMIMETIC MACROCYCLES AND USE THEREOF IN REGULATING HIF1ALPHA” (AILERON THERAPEUTICS, INC., priority 2013, published 2019)
